Data as given in patent US6355428B1, “Nucleic acid ligand interaction assays” (Genelabs Technologies, Inc., priority 1998, dated 2002).
Starred links: 1 amine or outer side, 2 acyl side, 3 side chain; linkers in the order of their positions; H or OH if unused. Positions of bridges follow the written chain, without caps; N, C: chain ends. Non-standard residues stand in square brackets, D forms with d. Residues, ends and D or L forms follow the SMILES beside them. Chains are numbered I, II in the order given. Actinocin(9to1) = Cc1c2oc3c(C)ccc(C(=O)[*:1])c3nc-2c(C(=O)[*:2])c(N)c1=O; NMeV = CN[C@H](C(=O)O)C(C)C; Sar = CNCC(=O)O

Key:
[1] = system: A/T rich, G/C rich and mixed sequence DNA oligonucleotides; test: SPA direct binding assay, sequence preference over panel of indicator oligonucleotides; details: A/T rich 5′-AAAATAATAAAG, G/C rich 5′-GGCGCGG, mixed 5′-GTTGCAGATC; increasing drug
Text: This technology can be applied to studies of ligand binding as disclosed herein. […] These beads are impregnated with scintillant. The second oligonucleotide is labeled with a weak β-emitter, such as ^3H or ^33P. The radioactive second oligonucleotide is mixed with a solution of the beads under conditions at which the first and second oligonucleotides exist primarily as single strands, as described above. The signal will thus be low, as the oligonucleotides are non-hybridized. When ligand is added, the duplex form is stabilized, and the increased proximity of the radioactive isotope (e.g., ^3H, ^33P) in the second oligonucleotide causes the bead to which the first oligonucleotide is bound to scintillate. A signal thus indicates the presence of an effective binding ligand molecule; test sequences giving higher signals indicate the relative preference for different sequences.
Indicator oligonucleotides as shown in Table 1 were used in this assay, as shown in Table II and FIGS. 4A-E. One strand of each duplex was labeled with biotin at the 5′-end, and the complementary strand was 3′-labeled with ^33P. The two complementary strands were incubated with streptavidin-coated SPA beads (Amersham, Arlington Heights, Ill.) at room temperature in a buffer containing 20 mM HEPES, pH 7.5, 0.1 mM EDTA, and 20 mM NaCl. In the absence of ligand, and under these conditions, the oligonucleotides exist in single-stranded conformation. As a result, the oligonucleotide containing the radioactive label is not in close proximity to the SPA bead, and the light given off by the beads is low, i.e., at background. As a duplex-stabilizing ligand is added, the radioactive ^33P is brought into close proximity to the SPA bead, and the light emitted from the SPA bead increases.

[2] = system: RNA 5′-rCUAGAUCUGA-3′ (SEQ ID NO: 23) double stranded RNA probe; test: Fluorescence quenching direct binding assay, RNA; details: increasing bekanomycin
Protocol: (§1) The specific examples described in this section employ fluorescence quenching as the detection system. In these examples, because conditions are adjusted to maintain the oligonucleotides in single-stranded form in the absence of the ligand, the assay starts with the system at a high or maximum level of fluorescence, and fluorescence generally decreases, depending on binding affinity, as the ligand is added.
In the Figure legends, RNA oligonucleotides are denoted by an “r” at the beginning of the sequence, and single stranded controls by “ss” at the end of the sequence. These single stranded sequence, are used alone in control experiments, which thus employ only an “F” strand and no complementary quenching strand. Any quenching of fluorescence that is not due to hybridization can thus be acounted for. Maximum quenching expected on complete hybridization of these oligonucleotides is 85-90%; therefore some signal remains after complete hybridization. The signal is plotted so that it is normalized to the control signal in the absence of ligand.
Netropsin has been shown in previous studies to bind preferentially to A/T rich regions of DNA. […] Netropsin also binds well to the sequence 5′-GCGGTATTT-3′ (SEQ ID NO: 12), which is a useful “indicator” probe (as discussed below), having both C/G and A/T rich sequences. […]

[3] = system: F/Q indicator oligonucleotide pairs (Table I); test: Fluorescence quenching direct binding assay, panel of F/Q indicator oligonucleotide pairs; details: concentrations up to 5 μM; tRNA added
Protocol: as §1
In the Figure legends, RNA oligonucleotides are denoted by an “r” at the beginning of the sequence, and single stranded controls by “ss” at the end of the sequence. These single stranded sequence, are used alone in control experiments, which thus employ only an “F” strand and no complementary quenching strand. Any quenching of fluorescence that is not due to hybridization can thus be acounted for. Maximum quenching expected on complete hybridization of these oligonucleotides is 85-90%; therefore some signal remains after complete hybridization. […]
According to the general method described above, increasing amounts of netropsin or actinomycin, respectively, were added to mixtures of selected F/Q indicator oligonucleotide pairs, whose sequences are shown in the legends of FIGS. 1 and 3. […] The Figures show the level of fluorescence observed, relative to a control having no added drug, for each indicator pair (or single strand) as the level of added drug was increased. […]

| Compound | sequence preference of binding (FIGS. 4A-E) [1] | binding preference over all other test oligonucleotides (FIG. 3C) [2] | sequences bound (FIG. 3B) [3] |
| --- | --- | --- | --- |
| CC(=O)NCC(=O)O.CC(=O)NCC(=O)O.N=C(N)c1ccc(N=NNc2ccc(C(=N)N)cc2)cc1 [berenil] | no strong preference | – | – |
| COC(C(=O)C(O)C(C)O)C1Cc2cc3cc(OC4CC(OC5CC(O)C(OC)C(C)O5)C(OC(C)=O)C(C)O4)c(C)c(O)c3c(O)c2C(=O)C1OC1CC(OC2CC(OC3CC(C)(O)C(OC(C)=O)C(C)O3)C(O)C(C)O2)C(O)C(C)O1 (centres unmarked) [chromomycin A] | preferred GC-rich sequences | – | – |
| NCC1OC(OC2C(N)CC(N)C(OC3OC(CO)C(O)C(N)C3O)C2O)C(N)C(O)C1O (centres unmarked) [Bekanomycin, bekanomycin] | – | very strong preference for the double stranded RNA probe | – |
| Cc1c2oc3c(C)ccc(C(=O)N[C@@H]4C(=O)N[C@H](C(C)C)C(=O)N5CCC[C@H]5C(=O)N(C)CC(=O)N(C)[C@@H](C(C)C)C(=O)O[C@@H]4C)c3nc-2c(C(=O)N[C@@H]2C(=O)N[C@H](C(C)C)C(=O)N3CCC[C@H]3C(=O)N(C)CC(=O)N(C)[C@@H](C(C)C)C(=O)O[C@@H]2C)c(N)c1=O [actinomycin D] (I: T[dV]P[Sar][NMeV] / II: T[dV]P[Sar][NMeV]; ester I:1-I:C, II:1-II:C; linker I:N-II:N via Actinocin(9to1)) | preferred GC-rich sequences | – | binding only to the C/G containing sequences (SEQ ID NOS: 6, 8, and 12) |
